Where a SMILES comes first, the peptide text is derived from it. [ ]: non-standard residue; d: D form. Aib = CC(C)(N)C(=O)O
Assays:
enriched OPC cultures = assay: Number of mature oligodendrocytes after differentiation of enriched OPC culture; assay type: cell-based, rat; conditions: 2 μM COG 133, 1 μM COG 112 or 1 μM COG 68 for four days, then six days differentiation without analog
Method: FIG. 11. ApoE analogs increase the number of mature oligodendrocytes in culture. ApoE analogs (COG 133, COG 112, and COG 68) were added to enriched OPC culture in proliferation media for four days. Cultures were then differentiated in the absence of the ApoE analogs. Cells were labeled with a GST-π antibody to detect mature oligodendrocytes.
Since COG 112 increased the proliferation of OPCs, we next examined whether the ApoE analogs could also increase the number of mature oligodendrocytes. Enriched OPC cultures were prepared as described for the previous experiment. 2 μM COG 133 (SEQ ID NO: 1), 1 μM COG 112 (SEQ ID NO: 5), or 1 μM COG 68 (Ac-[…]-NH2; SEQ ID NO: 7) were added to the enriched OPC cultures in proliferation media for four days. The media was then replaced with differentiation medium without the ApoE analogs for an additional six days. Cells were labeled with a GST-π antibody to detect mature oligodendrocytes.

microglia cell line BV2 = assay: LPS-induced NO and TNF-α release in BV2 microglia; assay type: cell-based, murine; conditions: LPS 10 ng/ml, 24 hours
Method: FIG. 16. […] Series concentrations of ApoE analogs were added to culture medium together with LPS (10 ng/ml). 24 hours later, culture medium was collected for measurement of NO by Griess assay or TNF-α by ELISA. […] ApoE analogs (10 μM) were added to the cell medium of human macrophage U937 5 minutes prior to PMA+LPS treatment. The release of superoxide in culture medium was measured by Luminol assay kit (Calbiochem).
The murine microglia cell line BV2 was used as the first screening platform to compare the potency of ApoE analogs in anti-inflammatory activity. In response to LPS, BV2 produces amounts of reactive radical NO and inflammatory cytokines, such as TNF-α and IL-6. We stimulated the cells with LPS (10 ng/ml) in the presence of several concentrations of each of the ApoE analogs. We measured NO in medium by Griess assay and TNF-α by ELISA 24 hours after LPS stimulation of the cells. The IC50 value was calculated for each of the ApoE analogs.

cerebellar slices = assay: Lysolecithin-induced demyelination in organotypic cerebellar slice culture; assay type: cell-based, rat
Method: FIG. 7. COG 112 promotes remyelination in a lysolecithin-induced demyelination model in cerebellum slice culture. Cerebellum slices from postnatal day 10 rat pups were cultured for 7 days. Lysolecithin was added to a final concentration of 0.5 mg/ml and then removed after incubation overnight (15˜17 hr). 1 μM COG 112 was added to the slice and cultured for 5 days. The cerebellar slices were either immunohistologically stained with MBP; or collected and lysed for western blotting with myelin marker MBP. (A) naïve slice; (B) 2 days after lysolecithin treatment; (C) day 7 after lysolecithin treatment; (D) day 7 after lysolecithin treatment with COG 112 added on day 3; (E) Western blot of cerebellar lysates probed for MBP; (F) Densitometry analysis of blots probed for MBP. The density of each MBP band was normalized to density of β-actin band. One-way ANOVA was used for statistical analysis. n=4
FIG. 8. COG 112 prevents lysolecithin-induced cell death of oligodendrocytes in cerebellum slice culture. Cerebellum slices from postnatal day 10 rat pups were cultured for 7 days. Lysolecithin was added to a final concentration of 0.5 mg/ml with and without COG 112 (1 μM). After incubation overnight (16 hr), medium was replaced with fresh lysolecithin-free medium, but still containing COG 112 for the COG 112 treatment group. After two days, the cerebellar slices were collected and lysed for western blotting with myelin marker MBP (left panel) and oligodendrocyte marker CNPase (right panel). The density of each MBP or CNPase band was normalized to the density of the β-actin band. One-way ANOVA was used for statistical analysis. n=4, * p<0.01.
FIG. 19. COG 345 promotes remyelination in lysolecithin-induced demyelination model of cerebellum slices. Significant demyelination was induced by lysolecithin (0.5 mg/ml) in cerebellar slices. COG 112 or COG 345 (1 μM) was added on day 3 when full demyelination was achieved. 4 days later, the slices were fixed and double stained with myelin marker MBP (green) and Purkinje cell marker calbindin (red). (A) Untreated-slices; (B) lysolecithin-treated slices; (C) COG 112-treated slices after lysolecithin exposure; (D) COG 345-treated slices after lysolecithin exposure. E-F. ApoE analogs protect OPCs from LPS-induced cell death in OPC/microglia mixed culture. OPCs and microglia derived from brain culture of P2 rat pups were plated in 96-well plates in 1:1 ratio. LPS (10 ng/ml) together with 1 μM of the indicated ApoE analogs was added to the cultures. After 24 hours, OPC cell death was quantified by LDH assay (E) and MTT assay (F). Statistical analysis was conducted by one-way ANOVA followed by Dunnett comparison vs. LPS group. * P<0.01, ** P<0.001, n=3.
The effect of COG peptides (i.e. ApoE analogs) on remyelination in a second model of demyelination was examined. For this series of experiments, a lysolecithin-induced in vitro demyelination model in an organotypic cerebellar slice culture was used. Parasagittal slices of postnatal Day 10 (P10) rat cerebellum were cut at 400 μm using a Tissue Slicer (SD Instruments, Grants Pass, Oreg.). After culture in conditioned medium for 7 days in vitro (DIV), fresh medium with lysolecithin (0.5 mg/ml) was added to the slice and incubated overnight (15-17 hours) at 37° C. The lysolecithin-containing medium was then replaced with fresh medium without lysolecithin. On day 3, COG 112 (1 μM) was added to the slice with fresh medium. After incubation for 5 days, the cerebellar slices were either immunohistologically stained for myelin basic protein (MBP), a myelin marker, (FIG. 7A-D) or lysed for western blotting and subsequent probing for MBP (FIGS. 7E and F). […] Similar results were obtained from the Western blot analysis of lysates of the cerebellar slices (FIGS. 7E and F). […] In addition, the blots of cerebellar slice lysate were also probed for oligodendrocyte (OL) marker 2′,3′-Cyclic Nucleotide 3′-Phosphodiesterase (CNPase). […]

[1] = 1 μM added on day 3 after lysolecithin, 5 days
[2] = 1 μM added together with lysolecithin, 2 days after

CC(=O)N[C@@H](CC(C)C)C(=O)N[C@@H](CCCNC(=N)N)C(=O)N[C@H](C(=O)N[C@@H](CCCNC(=N)N)C(=O)N[C@@H](CC(C)C)C(=O)N[C@@H](C)C(=O)N[C@@H](CO)C(=O)N[C@@H](Cc1c[nH]cn1)C(=O)N[C@@H](CC(C)C)C(=O)N[C@@H](CCCNC(=N)N)C(=O)N[C@@H](CCCCN)C(=O)N[C@@H](CC(C)C)C(=O)N[C@@H](CCCNC(=N)N)C(=O)N[C@@H](CCCCN)C(=O)N[C@@H](CCCNC(=N)N)C(=O)N[C@@H](CC(C)C)C(=O)N[C@@H](CC(C)C)C(N)=O)C(C)C [COG 133]
number of mature oligodendrocytes (GST-π) (enriched OPC cultures): significantly increased the number of mature oligodendrocytes

Ac-RQIKIWFQNRRMKWKKCLRVRLASHLRKLRKRLL-NH2 [COG 112]
activity in suppression of microglia activation (NO by Griess assay, TNF-α by ELISA) (microglia cell line BV2): clearly superior to that of COG 133 | number of mature oligodendrocytes (GST-π) (enriched OPC cultures): significantly increased the number of mature oligodendrocytes | MBP levels (Western blot) (cerebellar slices; [1]): increased MBP levels | level of MBP protein (immunostaining) (cerebellar slices; [1]): robustly elevated | prevention of lysolecithin-induced demyelination (MBP Western blot) (cerebellar slices; [2]): did not prevent lysolecithin-induced demyelination | prevention of oligodendrocyte cell death (CNPase Western blot) (cerebellar slices; [2]): did prevent oligodendrocyte cell death | level of CNPase (Western blot) (cerebellar slices; 1 μM post-treatment, data not shown): significantly increased

CC(=O)NC(=N)NCCC[C@H](NC(=O)[C@H](CCCCN)NC(=O)[C@H](CCCNC(=N)N)NC(=O)[C@H](CC(C)C)NC(=O)[C@H](CCCCN)NC(=O)[C@H](CCCNC(=N)N)NC(=O)[C@H](CC(C)C)NC(=O)C(C)(C)NC(=O)[C@H](CO)NC(=O)[C@H](C)NC(=O)[C@H](CC(C)C)NC(=O)[C@H](CCCNC(=N)N)NC(=O)[C@@H](NC(=O)[C@H](CCCNC(=N)N)NC(=O)[C@H](CC(C)C)NC(C)=O)C(C)C)C(=O)N[C@@H](CC(C)C)C(=O)N[C@@H](CC(C)C)C(N)=O [COG 345, acetyl-LRVRLAS-Aib-LRKLRK(acetyl-Arg)LL-amide] (Ac-LRVRLAS[Aib]LRKLRKR(Ac)LL-NH2)
activity in suppression of microglia activation (NO by Griess assay, TNF-α by ELISA) (microglia cell line BV2): clearly superior to that of COG 133 | myelination (MBP/calbindin double staining) (cerebellar slices; 1 μM added three days after lysolecithin, 4 days): dramatically restored myelination
